{
  "source": "patent US12691124B2",
  "about": "“Methods of controlling and improving brain health” (ICAHN SCHOOL OF MEDICINE AT MOUNT SINAI, priority 2019, dated 2026)",
  "key": {"[1]": {"system": "primary cortical neurons", "experiment": "Polar metabolite mass spectrometry in primary cortical neurons", "type": "cell-based, mouse", "description": "Mass Spectrometry. Cell culture plates (2e6 cells per well n=7-8 per group) were washed with 75 mM Ammonium bicarbonate, pH 7.4, warmed to 37 degrees. Plates were quenched on liquid nitrogen for 10 seconds and then placed on dry ice. 1 ml of 70% Ethanol in MS-grade water was warmed to 75 degrees and added to each well. Plates were incubated in a 75 degree water bath for 3 minutes, shaking gently every minute. After 3 minutes, plates were placed on dry ice and once cooled, supernatants were lyophilized using the speed vacuum and stored at −80 degrees. Samples were shipped on dry ice to Cellzome who processed the samples for mass spectrometry and performed the initial analysis annotating metabolites. A semi-quantitative approach was used which determines the metabolite levels relative to a control rather than absolute concentrations. All detected ions were used for statistical analysis regardless of how many samples they were detected. This allows for the identification of low-abundant metabolites that may be present in only a subset of samples.\nIf IBET858 is indeed decreasing metabolism as indicated, comprehensive metabolic changes after BET inhibition should be observed. Therefore, an unbiased analysis of polar metabolites via mass spectrometry was employed (FIGS. 12A-12C). Accordingly, the levels of 100-150 unique metabolites are changed by chronic BET inhibition in primary cortical neurons."}, "[2]": {"system": "primary microglia exposed to lipopolysaccharide (LPS)", "experiment": "LPS-induced gene expression in primary microglia pretreated with IBET858", "type": "cell-based, mouse", "description": "Primary Microglia Culture. Postnatal day 0 C57/Bl6 mice were decapitated in ice cold HBSS. The forebrain was rapidly dissected and treated as above in order to generate a single cell suspension. 60,000 cells per cm2 were seeded in vented, Poly-D-lysine coated flasks. Mixed glial cultures were maintained in DMEM containing 10% FBS and 1% penicillin/streptomycin for 3 weeks. After three weeks, microglia were isolated by shaking the mixed glial cultures for 4 hours at 360 rpm and re-plated at density on 100,0000 cells/cm2. Cultures were given 24 hours to settle before treatment. Cultures were pre-treated for 30 minutes with either DMSO (0.01%) or 1 uM IBET858. After 30 minutes, LPS (100 ng/ml) was added to the cultures. RNA was isolated with Trizol LS according to the manufacturer's recommendations after 1, 4 and 12 hours of LPS treatment.\nTo understand if BET proteins regulate the dynamic induction of pro-inflammatory gene networks, primary microglia were exposed to the bacterial cell wall component lipopolysaccharide, LPS. T, which is recognized by Tlr4, triggers a signal cascade that leads to an extensive increase in cytokine and chemokine production which causes significant damage to host tissues if left unrestrained. Nicodeme et al., “Suppression of Inflammation by a Synthetic Histone Mimic,” Nature 468:1119-1123 (2010), which is hereby incorporated by reference in its entirety. As before, microglial identity genes Tyrobp, Hexb and Trem2 were unaffected by IBET858 (FIG. 4B). As expected, LPS causes a time-dependent increase in pro-inflammatory gene expression in microglia (FIGS. 4C-4E). […] BET inhibition specifically decreases the expression of inflammatory genes (Il6, Cd33, and Nlrp3), interferon response pathway (Ifnb, Irf2/9, Mx1) and cell death mediators (Bid, Casp1/4/7/12, Traf1). […] Nicodeme et al., “Suppression of Inflammation by a Synthetic Histone Mimic,” Nature 468:1119-1123 (2010), which is hereby incorporated by reference in its entirety."}},
  "data": [
    {"smiles": "CC(=O)N1c2ccc(-c3ccc(CN4CCCCC4)cc3)cc2[C@H](Nc2ccccc2)CC1C", "note": "(stereo in doubt) [IBET858]", "values": [
      {"measurement": "enrichment of decreased metabolites, Arginine/Proline metabolism (OR)", "setting": "[1]; 1 week IBET858", "result": 26.8},
      {"measurement": "enrichment of decreased metabolites, Glutamate metabolism (OR)", "setting": "[1]; 1 week IBET858", "result": 24.4},
      {"measurement": "enrichment of decreased metabolites, Tyrosine metabolism (OR)", "setting": "[1]; 1 week IBET858", "result": 30.33},
      {"measurement": "enrichment of decreased metabolites, glycolysis (OR)", "setting": "[1]; 1 week IBET858", "result": 48.8},
      {"measurement": "enrichment of decreased metabolites, pentose phosphate pathway (OR)", "setting": "[1]; 1 week IBET858", "result": 42},
      {"measurement": "enrichment of increased metabolites, aspartate metabolism pathway (OR)", "setting": "[1]; 1 week IBET858", "result": 23.5},
      {"measurement": "amino acids significantly decreased", "setting": "[1]; 1 week IBET858, 13/20", "result": 65, "unit": "%"},
      {"measurement": "unique metabolites changed", "setting": "[1]; chronic BET inhibition (1 week)", "result": "100-150 metabolites"},
      {"measurement": "chemotaxis, cell proliferation and NFkB pathway genes after LPS", "setting": "[2]; 1 μM", "result": "insensitive"},
      {"measurement": "microglial identity genes Tyrobp, Hexb and Trem2 after LPS", "setting": "[2]; 1 μM", "result": "unaffected"},
      {"measurement": "LPS gene induction", "setting": "[2]; 1 μM pretreatment 30 min, LPS 1 h", "result": "little effect"},
      {"measurement": "LPS induced genes inhibited / LPS induced genes", "setting": "[2]; LPS 4 hours", "result": "514/960"},
      {"measurement": "LPS induced genes inhibited / LPS induced genes", "setting": "[2]; LPS 12 hours", "result": "484/747"}
    ]}
  ]
}
